Data: publication PMC4980837 (Archiv der Pharmazie, 2013)
Like-named read-outs stand apart in the source and are kept apart here. Values belong to the molecule of their own block, whether it stands above or below them.

Tests used:
recombinant human PDE5 = recombinant human PDE5 (Homo sapiens, UniProt O76074); test: PDE5 inhibition, IMAP FP phosphodiesterase assay; format: biochemical; settings: for inhibition at 10 µM: read-out: PDE5 % inhibition at 10 μm
PDE11A = PDE11A (Homo sapiens, UniProt Q9HCR9); test: PDE selectivity array, PDE11A with cGMP and cAMP as substrates; settings: for IC50: 10 concentrations, double replicates
PDE2A = PDE2A (Homo sapiens, UniProt O00408); test: PDE selectivity array, PDE2A with cGMP as substrate; settings: for inhibition of cGMP hydrolysis by PDE2A (in words): at concentrations up to 50 μM
PDE10A = PDE10A (Homo sapiens, UniProt Q9Y233); test: PDE selectivity array, PDE10A with cGMP as substrate; settings: for inhibition of cGMP hydrolysis by PDE10A (in words): at concentrations up to 50 μM
PDE3A = PDE3A (Homo sapiens, UniProt Q14432); test: PDE selectivity array, PDE3A with cGMP as substrate; settings: for inhibition of cGMP hydrolysis by PDE3A (in words): at concentrations up to 50 μM
PDE9A = PDE9A (Homo sapiens, UniProt O76083); test: PDE selectivity array, PDE9A with cGMP as substrate; settings: for inhibition of cGMP hydrolysis by PDE9A (in words): at concentrations up to 50 μM
PDE1A = PDE1A (Homo sapiens, UniProt P54750); test: PDE selectivity array, PDE1A with cGMP as substrate; settings: for inhibition of cGMP hydrolysis by PDE1A (in words): at concentrations up to 50 μM
[1] = IC50 PDE11A cAMP, substrate cAMP
[2] = IC50 PDE11A cGMP, substrate cGMP

PDE10A, sequence (Q9Y233 whole entry, species assumed): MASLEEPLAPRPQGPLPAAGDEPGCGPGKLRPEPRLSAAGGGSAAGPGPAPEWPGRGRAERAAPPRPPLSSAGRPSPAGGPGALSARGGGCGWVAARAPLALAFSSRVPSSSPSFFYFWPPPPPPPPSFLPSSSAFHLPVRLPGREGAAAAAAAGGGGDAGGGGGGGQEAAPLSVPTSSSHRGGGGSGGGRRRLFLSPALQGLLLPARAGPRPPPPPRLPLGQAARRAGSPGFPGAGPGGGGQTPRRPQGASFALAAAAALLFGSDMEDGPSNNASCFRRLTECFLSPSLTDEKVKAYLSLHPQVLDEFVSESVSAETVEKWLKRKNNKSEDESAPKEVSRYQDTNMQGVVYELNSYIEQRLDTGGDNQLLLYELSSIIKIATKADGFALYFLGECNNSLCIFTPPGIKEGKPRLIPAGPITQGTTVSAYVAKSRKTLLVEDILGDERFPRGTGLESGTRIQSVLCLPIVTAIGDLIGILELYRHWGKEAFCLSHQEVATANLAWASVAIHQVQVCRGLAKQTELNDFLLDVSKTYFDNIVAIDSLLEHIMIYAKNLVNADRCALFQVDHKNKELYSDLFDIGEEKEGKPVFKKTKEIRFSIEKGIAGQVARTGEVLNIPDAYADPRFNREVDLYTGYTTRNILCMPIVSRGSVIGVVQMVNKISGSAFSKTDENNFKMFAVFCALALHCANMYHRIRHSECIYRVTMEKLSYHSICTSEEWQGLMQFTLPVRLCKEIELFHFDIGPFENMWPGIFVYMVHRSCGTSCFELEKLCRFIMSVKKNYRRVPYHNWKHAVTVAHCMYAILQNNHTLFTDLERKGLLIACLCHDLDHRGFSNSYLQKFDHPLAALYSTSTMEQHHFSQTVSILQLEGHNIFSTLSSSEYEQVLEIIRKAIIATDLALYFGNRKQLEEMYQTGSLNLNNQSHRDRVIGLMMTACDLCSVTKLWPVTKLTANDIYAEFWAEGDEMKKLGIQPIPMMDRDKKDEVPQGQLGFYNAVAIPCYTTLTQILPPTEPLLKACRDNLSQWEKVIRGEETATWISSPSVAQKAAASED
PDE11A, sequence (Q9HCR9 whole entry, species assumed): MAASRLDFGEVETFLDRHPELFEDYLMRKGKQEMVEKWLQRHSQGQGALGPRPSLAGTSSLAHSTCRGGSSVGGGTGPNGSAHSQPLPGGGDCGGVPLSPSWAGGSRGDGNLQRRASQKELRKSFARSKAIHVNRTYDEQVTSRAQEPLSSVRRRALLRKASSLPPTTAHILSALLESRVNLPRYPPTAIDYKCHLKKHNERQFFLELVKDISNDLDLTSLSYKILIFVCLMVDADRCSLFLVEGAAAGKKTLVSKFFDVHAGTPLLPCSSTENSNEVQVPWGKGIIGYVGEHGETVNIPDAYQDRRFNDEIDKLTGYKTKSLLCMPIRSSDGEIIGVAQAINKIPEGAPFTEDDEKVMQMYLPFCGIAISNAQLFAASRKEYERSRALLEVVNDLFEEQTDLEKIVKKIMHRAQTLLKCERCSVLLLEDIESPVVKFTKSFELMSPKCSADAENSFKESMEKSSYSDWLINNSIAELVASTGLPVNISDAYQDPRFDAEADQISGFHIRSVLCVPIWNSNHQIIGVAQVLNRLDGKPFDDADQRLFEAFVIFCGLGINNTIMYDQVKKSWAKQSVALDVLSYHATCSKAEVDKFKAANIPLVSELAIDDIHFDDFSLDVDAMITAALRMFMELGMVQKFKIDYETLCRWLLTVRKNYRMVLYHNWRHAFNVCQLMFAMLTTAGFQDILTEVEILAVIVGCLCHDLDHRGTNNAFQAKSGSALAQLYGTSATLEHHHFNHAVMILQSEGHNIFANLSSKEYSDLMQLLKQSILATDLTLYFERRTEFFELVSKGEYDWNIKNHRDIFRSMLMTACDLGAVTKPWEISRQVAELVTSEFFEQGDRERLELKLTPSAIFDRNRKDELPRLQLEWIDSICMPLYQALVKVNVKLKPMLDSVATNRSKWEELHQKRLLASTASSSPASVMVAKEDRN
PDE1A, sequence (P54750 whole entry, species assumed): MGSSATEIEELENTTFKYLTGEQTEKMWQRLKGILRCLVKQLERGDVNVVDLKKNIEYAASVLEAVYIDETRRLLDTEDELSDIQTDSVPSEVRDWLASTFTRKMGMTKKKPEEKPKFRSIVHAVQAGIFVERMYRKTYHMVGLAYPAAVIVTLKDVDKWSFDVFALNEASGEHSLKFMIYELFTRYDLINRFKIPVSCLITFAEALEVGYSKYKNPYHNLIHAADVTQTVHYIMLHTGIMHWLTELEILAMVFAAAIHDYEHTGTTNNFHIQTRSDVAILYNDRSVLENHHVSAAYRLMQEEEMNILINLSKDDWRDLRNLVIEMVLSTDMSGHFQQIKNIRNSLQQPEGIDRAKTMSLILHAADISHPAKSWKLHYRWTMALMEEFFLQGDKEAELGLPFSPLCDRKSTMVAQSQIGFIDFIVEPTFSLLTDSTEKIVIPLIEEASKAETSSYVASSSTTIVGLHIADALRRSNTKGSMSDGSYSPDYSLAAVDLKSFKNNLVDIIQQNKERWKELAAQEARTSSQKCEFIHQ
PDE2A, sequence (O00408 whole entry, species assumed): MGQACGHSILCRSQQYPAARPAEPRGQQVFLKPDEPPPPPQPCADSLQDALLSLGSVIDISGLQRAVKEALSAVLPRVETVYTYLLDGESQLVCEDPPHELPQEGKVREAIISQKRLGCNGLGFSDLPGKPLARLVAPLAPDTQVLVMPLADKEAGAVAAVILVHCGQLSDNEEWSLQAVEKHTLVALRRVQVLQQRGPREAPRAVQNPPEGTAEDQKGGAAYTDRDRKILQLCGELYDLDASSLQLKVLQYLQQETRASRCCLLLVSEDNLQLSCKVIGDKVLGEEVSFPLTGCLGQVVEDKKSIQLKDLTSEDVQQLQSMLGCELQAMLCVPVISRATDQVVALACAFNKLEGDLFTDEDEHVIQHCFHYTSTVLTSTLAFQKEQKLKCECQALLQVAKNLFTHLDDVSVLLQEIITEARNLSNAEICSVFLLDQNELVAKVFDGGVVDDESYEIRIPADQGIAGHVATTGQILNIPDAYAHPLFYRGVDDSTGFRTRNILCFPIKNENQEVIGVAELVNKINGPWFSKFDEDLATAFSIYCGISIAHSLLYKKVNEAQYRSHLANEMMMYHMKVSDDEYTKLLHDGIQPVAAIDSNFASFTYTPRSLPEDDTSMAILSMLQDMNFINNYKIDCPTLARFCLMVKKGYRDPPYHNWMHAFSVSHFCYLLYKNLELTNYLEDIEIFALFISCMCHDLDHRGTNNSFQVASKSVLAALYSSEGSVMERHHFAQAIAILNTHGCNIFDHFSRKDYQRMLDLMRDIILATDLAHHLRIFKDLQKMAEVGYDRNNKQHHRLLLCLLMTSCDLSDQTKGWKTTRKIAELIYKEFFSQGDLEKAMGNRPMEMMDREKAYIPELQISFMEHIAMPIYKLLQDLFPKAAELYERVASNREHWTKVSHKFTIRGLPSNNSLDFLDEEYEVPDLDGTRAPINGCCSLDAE
PDE3A, sequence (Q14432 whole entry, species assumed): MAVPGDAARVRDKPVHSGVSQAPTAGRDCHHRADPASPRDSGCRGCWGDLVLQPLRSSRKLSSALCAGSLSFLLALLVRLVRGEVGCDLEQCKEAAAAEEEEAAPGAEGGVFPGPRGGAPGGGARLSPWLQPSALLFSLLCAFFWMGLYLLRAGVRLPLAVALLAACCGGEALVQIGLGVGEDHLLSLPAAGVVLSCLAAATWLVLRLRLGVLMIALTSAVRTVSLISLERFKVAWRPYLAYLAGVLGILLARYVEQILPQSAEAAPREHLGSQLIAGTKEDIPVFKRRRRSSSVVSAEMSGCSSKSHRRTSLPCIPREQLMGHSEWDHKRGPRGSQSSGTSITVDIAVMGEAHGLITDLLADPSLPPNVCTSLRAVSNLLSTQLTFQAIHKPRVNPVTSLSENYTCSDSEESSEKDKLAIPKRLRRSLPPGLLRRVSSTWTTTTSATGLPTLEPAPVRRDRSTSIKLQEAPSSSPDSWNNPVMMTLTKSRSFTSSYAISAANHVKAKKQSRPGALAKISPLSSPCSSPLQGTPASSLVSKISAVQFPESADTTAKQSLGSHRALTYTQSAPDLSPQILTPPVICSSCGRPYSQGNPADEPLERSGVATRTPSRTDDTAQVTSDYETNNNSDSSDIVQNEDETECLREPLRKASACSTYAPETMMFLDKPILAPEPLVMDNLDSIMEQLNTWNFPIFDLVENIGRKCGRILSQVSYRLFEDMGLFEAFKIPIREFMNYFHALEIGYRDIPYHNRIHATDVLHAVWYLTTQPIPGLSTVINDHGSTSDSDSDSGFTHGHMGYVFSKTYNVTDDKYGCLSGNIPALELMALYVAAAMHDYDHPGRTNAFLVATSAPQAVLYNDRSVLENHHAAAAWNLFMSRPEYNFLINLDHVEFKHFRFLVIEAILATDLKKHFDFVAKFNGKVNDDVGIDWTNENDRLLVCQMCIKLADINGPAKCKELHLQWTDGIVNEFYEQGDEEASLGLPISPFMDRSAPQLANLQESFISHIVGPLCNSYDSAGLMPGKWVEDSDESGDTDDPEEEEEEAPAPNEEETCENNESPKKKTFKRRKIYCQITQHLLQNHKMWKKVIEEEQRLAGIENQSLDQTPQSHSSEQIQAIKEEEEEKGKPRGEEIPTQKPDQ

inhibition at 10 µM (recombinant human PDE5): < 60%
SMILES: COC(=O)[C@H]1Cc2c([nH]c3ccccc23)[C@@H](c2ccc(Br)s2)N1 [Compound 1, (1S,3R) Methyl 1-(5-bromo-2-thienyl)-2,3,4,9-tetrahydro-1H-β-carboline-3-carboxylate]

inhibition at 10 µM (recombinant human PDE5): < 60%
SMILES: COC(=O)[C@H]1Cc2c([nH]c3ccccc23)[C@H](c2ccc(Br)s2)N1 [Compound 2, (1R,3R) Methyl 1-(5-bromo-2-thienyl)-2,3,4,9-tetrahydro-1H-β-carboline-3-carboxylate]

inhibition at 10 µM (recombinant human PDE5): < 60%
SMILES: COC(=O)[C@@H]1Cc2c([nH]c3ccccc23)[C@H](c2ccc(Br)s2)N1 [Compound 3, (1R,3S) Methyl 1-(5-bromo-2-thienyl)-2,3,4,9-tetrahydro-1H-β-carboline-3-carboxylate]

inhibition at 10 µM (recombinant human PDE5): < 60%
SMILES: COC(=O)[C@@H]1Cc2c([nH]c3ccccc23)[C@@H](c2ccc(Br)s2)N1 [Compound 4, (1S,3S) Methyl 1-(5-bromo-2-thienyl)-2,3,4,9-tetrahydro-1H-β-carboline-3-carboxylate]

IC50 (recombinant human PDE5; read-out: PDE5 inhibition IC50, 10 concentrations, each with double replicates): 0.16 µM
IC50 (PDE11A; [1]): 11.3 µM
IC50 (PDE11A; [2]): 7.8 µM
IC50 (PDE2A): > 50 µM
IC50 (PDE10A): > 50 µM
IC50 (PDE3A): > 50 µM
IC50 (PDE9A): > 50 µM
IC50 (PDE1A): > 50 µM
SMILES: CCN1C(=O)[C@@H]2Cc3c([nH]c4ccccc34)[C@@H](c3ccc(Br)s3)N2C1=O [Compound 8, (5S,11aS) 5-(5-Bromo-2-thienyl)-2-ethyl-5,6,11,11a-tetrahydro-1H-imidazo[1′,5 ′:1,6]pyrido[3,4-b]indole-1,3(2H)-dione]
inhibition of cGMP hydrolysis by PDE2A (in words) (PDE2A): lacked the ability to inhibit cGMP hydrolysis
inhibition of cGMP hydrolysis by PDE10A (in words) (PDE10A): lacked the ability to inhibit cGMP hydrolysis
inhibition of cGMP hydrolysis by PDE3A (in words) (PDE3A): lacked the ability to inhibit cGMP hydrolysis
inhibition of cGMP hydrolysis by PDE9A (in words) (PDE9A): lacked the ability to inhibit cGMP hydrolysis
inhibition of cGMP hydrolysis by PDE1A (in words) (PDE1A): lacked the ability to inhibit cGMP hydrolysis

IC50 (recombinant human PDE5): 1 µM
SMILES: CC(C)(C)N1C(=O)[C@@H]2Cc3c([nH]c4ccccc34)[C@@H](c3ccc(Br)s3)N2C1=O [Compound 16, (5S,11aS) 5-(5-Bromo-2-thienyl)-2-tert-butyl-5,6,11,11a-tetrahydro-1H-imidazo[1′,5 ′:1,6]pyrido[3,4-b]indole-1,3(2H)-dione]

IC50 (recombinant human PDE5): 1.71 µM
inhibition at 10 µM (recombinant human PDE5): 81%
SMILES: CCN1CC(=O)N2[C@H](c3ccc(Br)s3)c3[nH]c4ccccc4c3C[C@@H]2C1=O [Compound 23, (6S,12aR) 6-(5-Bromo-2-thienyl)-2-ethyl-2,3,6,7,12,12a-hexahydropyrazino[1′,2 ′:1,6]pyrido[3,4-b]indole-1,4-dione]

IC50 (recombinant human PDE5): 1 µM
inhibition at 10 µM (recombinant human PDE5): 87%
SMILES: CCN1CC(=O)N2[C@H](c3ccc(Br)s3)c3[nH]c4ccccc4c3C[C@H]2C1=O [Compound 24, (6S,12aS) 6-(5-Bromo-2-thienyl)-2-ethyl-2,3,6,7,12,12a-hexahydropyrazino[1′,2 ′:1,6]pyrido[3,4-b]indole-1,4-dione]

Second part, the molecule before the results:

SMILES: CCCCN1C(=O)[C@H]2Cc3c([nH]c4ccccc34)[C@@H](c3ccc(Br)s3)N2C1=O [Compound 9, (5S,11aR) 5-(5-Bromo-2-thienyl)-2-butyl-5,6,11,11a-tetrahydro-1H-imidazo[1′,5 ′:1,6]pyrido[3,4-b]indole-1,3(2H)-dione]
IC50 (recombinant human PDE5): 0.17 µM
inhibition at 10 µM (recombinant human PDE5): 99%
IC50 (PDE11A; [1]): 4 µM
IC50 (PDE11A; [2]): 2.3 µM
Selectivity index IC50 (PDE11A/PDE5A) cGMP/cGMP (PDE11A; ratio of IC50 PDE11A to PDE5A, cGMP as substrate): 14
IC50 (PDE2A): > 50 µM
inhibition of cGMP hydrolysis by PDE2A (in words) (PDE2A): lacked the ability to inhibit cGMP hydrolysis
IC50 (PDE10A): > 50 µM
inhibition of cGMP hydrolysis by PDE10A (in words) (PDE10A): lacked the ability to inhibit cGMP hydrolysis
IC50 (PDE3A): > 50 µM
inhibition of cGMP hydrolysis by PDE3A (in words) (PDE3A): lacked the ability to inhibit cGMP hydrolysis
IC50 (PDE9A): > 50 µM
inhibition of cGMP hydrolysis by PDE9A (in words) (PDE9A): lacked the ability to inhibit cGMP hydrolysis
IC50 (PDE1A): > 50 µM
inhibition of cGMP hydrolysis by PDE1A (in words) (PDE1A): lacked the ability to inhibit cGMP hydrolysis

SMILES: CCCCN1C(=O)[C@H]2Cc3c([nH]c4ccccc34)[C@H](c3ccc(Br)s3)N2C1=O [Compound 10, (5R,11aR) 5-(5-Bromo-2-thienyl)-2-butyl-5,6,11,11a-tetrahydro-1H-imidazo[1′,5 ′:1,6]pyrido[3,4-b]indole-1,3(2H)-dione]
inhibition at 10 µM (recombinant human PDE5): < 60%

SMILES: CCCCN1C(=O)[C@@H]2Cc3c([nH]c4ccccc34)[C@H](c3ccc(Br)s3)N2C1=O [Compound 11, (5R,11aS) 5-(5-Bromo-2-thienyl)-2-butyl-5,6,11,11a-tetrahydro-1H-imidazo[1′,5 ′:1,6]pyrido[3,4-b]indole-1,3(2H)-dione]
inhibition at 10 µM (recombinant human PDE5): < 60%

SMILES: CCCCN1C(=O)[C@@H]2Cc3c([nH]c4ccccc34)[C@@H](c3ccc(Br)s3)N2C1=O [Compound 12, (5S,11aS) 5-(5-Bromo-2-thienyl)-2-butyl-5,6,11,11a-tetrahydro-1H-imidazo[1′,5 ′:1,6]pyrido[3,4-b]indole-1,3(2H)-dione]
IC50 (recombinant human PDE5): 0.47 µM
inhibition at 10 µM (recombinant human PDE5): 92%

SMILES: CC(C)(C)N1C(=O)[C@H]2Cc3c([nH]c4ccccc34)[C@@H](c3ccc(Br)s3)N2C1=O [Compound 13, (5S,11aR) 5-(5-Bromo-2-thienyl)-2-tert-butyl-5,6,11,11a-tetrahydro-1H-imidazo[1′,5 ′:1,6]pyrido[3,4-b]indole-1,3(2H)-dione]
IC50 (recombinant human PDE5): 0.39 µM
inhibition at 10 µM (recombinant human PDE5): 97%

SMILES: CC(C)(C)N1C(=O)[C@H]2Cc3c([nH]c4ccccc34)[C@H](c3ccc(Br)s3)N2C1=O [Compound 14, (5R,11aR) 5-(5-Bromo-2-thienyl)-2-tert-butyl-5,6,11,11a-tetrahydro-1H-imidazo[1′,5 ′:1,6]pyrido[3,4-b]indole-1,3(2H)-dione]
inhibition at 10 µM (recombinant human PDE5): < 60%

SMILES: CC(C)(C)N1C(=O)[C@@H]2Cc3c([nH]c4ccccc34)[C@H](c3ccc(Br)s3)N2C1=O [Compound 15, (5R,11aS) 5-(5-Bromo-2-thienyl)-2-tert-butyl-5,6,11,11a-tetrahydro-1H-imidazo[1′,5 ′:1,6] pyrido[3,4-b]indole-1,3(2H)-dione]
inhibition at 10 µM (recombinant human PDE5): < 60%

SMILES: C=CCN1C(=O)[C@H]2Cc3c([nH]c4ccccc34)[C@@H](c3ccc(Br)s3)N2C1=O [Compound 17, (5S,11aR) 5-(5-Bromo-2-thienyl)-2-allyl-5,6,11,11a-tetrahydro-1H-imidazo[1′,5 ′:1,6]pyrido[3,4-b]indole-1,3(2H)-dione]
IC50 (recombinant human PDE5): 0.29 µM

SMILES: C=CCN1C(=O)[C@H]2Cc3c([nH]c4ccccc34)[C@H](c3ccc(Br)s3)N2C1=O [Compound 18, (5R,11aR) 5-(5-Bromo-2-thienyl)-2-allyl-5,6,11,11a-tetrahydro-1H-imidazo[1′,5 ′:1,6]pyrido[3,4-b]indole-1,3(2H)-dione]
IC50 (recombinant human PDE5): 5.4 µM

SMILES: C=CCN1C(=O)[C@@H]2Cc3c([nH]c4ccccc34)[C@H](c3ccc(Br)s3)N2C1=O [Compound 19, (5R,11aS) 5-(5-Bromo-2-thienyl)-2-allyl-5,6,11,11a-tetrahydro-1H-imidazo[1′,5 ′:1,6]pyrido[3,4-b]indole-1,3(2H)-dione]
inhibition at 10 µM (recombinant human PDE5): < 60%

SMILES: C=CCN1C(=O)[C@@H]2Cc3c([nH]c4ccccc34)[C@@H](c3ccc(Br)s3)N2C1=O [Compound 20, (5S,11aS) 5-(5-Bromo-2-thienyl)-2-allyl-5,6,11,11a-tetrahydro-1H-imidazo[1′,5 ′:1,6]pyrido[3,4-b]indole-1,3(2H)-dione]
IC50 (recombinant human PDE5): 0.32 µM
inhibition at 10 µM (recombinant human PDE5): 97%

SMILES: COC(=O)c1cc2c([nH]c3ccccc32)c(-c2ccc(Br)s2)n1 [Compound 25, Methyl 1-(5-bromo-2-thienyl)-β-carboline-3-carboxylate]
PDE5 inhibition (in words) (recombinant human PDE5; SAR statement in text): no PDE5 inhibition
inhibition at 10 µM (recombinant human PDE5): < 60%

SMILES: CN1CC(=O)N2[C@H](c3ccc4c(c3)OCO4)c3[nH]c4ccccc4c3C[C@@H]2C1=O [Tadalafil, tadalafil, reference compound]
IC50 (PDE2A): > 50 µM
inhibition of cGMP hydrolysis by PDE2A (in words) (PDE2A): lacked the ability to inhibit cGMP hydrolysis
IC50 (PDE10A): > 50 µM
inhibition of cGMP hydrolysis by PDE10A (in words) (PDE10A): lacked the ability to inhibit cGMP hydrolysis
IC50 (PDE3A): > 50 µM
inhibition of cGMP hydrolysis by PDE3A (in words) (PDE3A): lacked the ability to inhibit cGMP hydrolysis
IC50 (PDE9A): > 50 µM
inhibition of cGMP hydrolysis by PDE9A (in words) (PDE9A): lacked the ability to inhibit cGMP hydrolysis
IC50 (PDE1A): > 50 µM
inhibition of cGMP hydrolysis by PDE1A (in words) (PDE1A): lacked the ability to inhibit cGMP hydrolysis
